Assay: xn = mol fraction of the nth substance listed
Details: 308.15 K, 101 kPa

CCCCCCCCCCCCCCCC[n+]1ccccc1.[Cl-] + C[C@@H](O)[C@H](N)C(=O)O + O
Details	electrical conductivity [S/m]
x2 = 0, x1 = 5.4e-07	0.000222
x2 = 0, x1 = 9e-07	0.00029
x2 = 0, x1 = 1.62e-06	0.0004
x2 = 0, x1 = 2.34e-06	0.000465
x2 = 0, x1 = 2.88e-06	0.000581
x2 = 0, x1 = 3.78e-06	0.000705
x2 = 0, x1 = 4.5e-06	0.000794
x2 = 0, x1 = 5.59e-06	0.000937
x2 = 0, x1 = 6.85e-06	0.00106
x2 = 0, x1 = 7.93e-06	0.001222
x2 = 0, x1 = 9.01e-06	0.001438
x2 = 0, x1 = 1.009e-05	0.00159
x2 = 0, x1 = 1.117e-05	0.001701
x2 = 0, x1 = 1.442e-05	0.00209
x2 = 0, x1 = 1.55e-05	0.00219
x2 = 0, x1 = 1.766e-05	0.00237
x2 = 0, x1 = 1.982e-05	0.00248
x2 = 0, x1 = 2.18e-05	0.00259
x2 = 0, x1 = 2.397e-05	0.00264
x2 = 0, x1 = 2.595e-05	0.00278
x2 = 0, x1 = 2.991e-05	0.00297
x2 = 0, x1 = 3.406e-05	0.00314
x2 = 0, x1 = 3.784e-05	0.00328
x2 = 0, x1 = 4.162e-05	0.00342
x2 = 0, x1 = 4.541e-05	0.00356
x2 = 0, x1 = 4.919e-05	0.00369
x2 = 0, x1 = 5.099e-05	0.00375
x2 = 0, x1 = 5.982e-05	0.00403
x2 = 0, x1 = 6.829e-05	0.00432
x2 = 0, x1 = 7.64e-05	0.00454
x2 = 0, x1 = 8.415e-05	0.00477
x2 = 0, x1 = 9.171e-05	0.00497
x2 = 0, x1 = 9.892e-05	0.00516
x2 = 0, x1 = 0.0001058	0.00533
x2 = 0, x1 = 0.0001124	0.0055
x2 = 0, x1 = 0.0001189	0.00565
x2 = 2.018e-05, x1 = 5.4e-07	0.000282
x2 = 2.018e-05, x1 = 9e-07	0.00035
x2 = 2.018e-05, x1 = 1.62e-06	0.000431
x2 = 2.018e-05, x1 = 2.34e-06	0.000514
x2 = 2.018e-05, x1 = 2.88e-06	0.000652
x2 = 2.018e-05, x1 = 3.78e-06	0.000768
x2 = 2.018e-05, x1 = 4.51e-06	0.00084
x2 = 2.018e-05, x1 = 5.59e-06	0.001003
x2 = 2.018e-05, x1 = 6.67e-06	0.00115
x2 = 2.018e-05, x1 = 7.93e-06	0.00127
x2 = 2.018e-05, x1 = 9.01e-06	0.00139
x2 = 2.018e-05, x1 = 1.009e-05	0.001517
x2 = 2.018e-05, x1 = 1.117e-05	0.00165
x2 = 2.018e-05, x1 = 1.334e-05	0.00188
x2 = 2.018e-05, x1 = 1.55e-05	0.00214
x2 = 2.018e-05, x1 = 1.766e-05	0.0023
x2 = 2.018e-05, x1 = 1.964e-05	0.00249
x2 = 2.018e-05, x1 = 2.181e-05	0.00259
x2 = 2.018e-05, x1 = 2.379e-05	0.00271
x2 = 2.018e-05, x1 = 2.595e-05	0.00282
x2 = 2.018e-05, x1 = 2.992e-05	0.00299
x2 = 2.018e-05, x1 = 3.388e-05	0.00317
x2 = 2.018e-05, x1 = 3.766e-05	0.00332
x2 = 2.018e-05, x1 = 4.163e-05	0.00348
x2 = 2.018e-05, x1 = 4.523e-05	0.00361
x2 = 2.018e-05, x1 = 4.902e-05	0.00375
x2 = 2.018e-05, x1 = 5.082e-05	0.00383
x2 = 2.018e-05, x1 = 5.965e-05	0.00411
x2 = 2.018e-05, x1 = 6.812e-05	0.00438
x2 = 2.018e-05, x1 = 7.623e-05	0.0046
x2 = 2.018e-05, x1 = 8.398e-05	0.00483
x2 = 2.018e-05, x1 = 9.136e-05	0.00502
x2 = 2.018e-05, x1 = 9.857e-05	0.0052
x2 = 2.018e-05, x1 = 0.0001054	0.00538
x2 = 2.018e-05, x1 = 0.0001121	0.00553
x2 = 2.018e-05, x1 = 0.0001186	0.00568
x2 = 0.0002, x1 = 5.4e-07	0.000209
x2 = 0.0002, x1 = 9e-07	0.000279
x2 = 0.0002, x1 = 1.62e-06	0.000384
x2 = 0.0002, x1 = 2.35e-06	0.000481
x2 = 0.0002, x1 = 2.89e-06	0.000615
x2 = 0.0002, x1 = 3.79e-06	0.000744
x2 = 0.0002, x1 = 4.51e-06	0.000835
x2 = 0.0002, x1 = 5.59e-06	0.000986
x2 = 0.0002, x1 = 6.67e-06	0.001137
x2 = 0.0002, x1 = 7.94e-06	0.00127
x2 = 0.0002, x1 = 9.02e-06	0.001403
x2 = 0.0002, x1 = 1.01e-05	0.00155
x2 = 0.0002, x1 = 1.118e-05	0.00168
x2 = 0.0002, x1 = 1.335e-05	0.00196
x2 = 0.0002, x1 = 1.551e-05	0.00219
x2 = 0.0002, x1 = 1.75e-05	0.00237
x2 = 0.0002, x1 = 1.966e-05	0.00251
x2 = 0.0002, x1 = 2.183e-05	0.00264
x2 = 0.0002, x1 = 2.381e-05	0.00275
x2 = 0.0002, x1 = 2.58e-05	0.00286
x2 = 0.0002, x1 = 2.995e-05	0.00304
x2 = 0.0002, x1 = 3.391e-05	0.00321
x2 = 0.0002, x1 = 3.77e-05	0.00335
x2 = 0.0002, x1 = 4.149e-05	0.0035
x2 = 0.0002, x1 = 4.528e-05	0.00364
x2 = 0.0002, x1 = 4.889e-05	0.00376
x2 = 0.0002, x1 = 5.069e-05	0.00382
x2 = 0.0002, x1 = 5.953e-05	0.0041
x2 = 0.0002, x1 = 6.801e-05	0.00437
x2 = 0.0002, x1 = 7.612e-05	0.00458
x2 = 0.0002, x1 = 8.388e-05	0.00481
x2 = 0.0002, x1 = 9.146e-05	0.00499
x2 = 0.0002, x1 = 9.849e-05	0.00517
x2 = 0.0002, x1 = 0.0001055	0.00533
x2 = 0.0002, x1 = 0.000112	0.0055
x2 = 0.0002, x1 = 0.0001185	0.00565
x2 = 0.0009181, x1 = 2.391e-05	0.00276
x2 = 0.0009181, x1 = 2.608e-05	0.00285
x2 = 0.0009181, x1 = 3.007e-05	0.00304
x2 = 0.0009181, x1 = 3.405e-05	0.0032
x2 = 0.0009181, x1 = 3.804e-05	0.00337
x2 = 0.0009181, x1 = 4.184e-05	0.00351
x2 = 0.0009181, x1 = 4.564e-05	0.00365
x2 = 0.0009181, x1 = 4.926e-05	0.00379
x2 = 0.0009181, x1 = 5.108e-05	0.00385
x2 = 0.0009181, x1 = 5.995e-05	0.00413
x2 = 0.0009181, x1 = 6.846e-05	0.00439
x2 = 0.0009181, x1 = 7.661e-05	0.00463
x2 = 0.0009181, x1 = 8.44e-05	0.00485
x2 = 0.0009181, x1 = 9.2e-05	0.00505
x2 = 0.0009181, x1 = 9.907e-05	0.00523
x2 = 0.0009181, x1 = 0.0001061	0.0054
x2 = 0.0009181, x1 = 0.0001128	0.00556
x2 = 0.0009181, x1 = 0.0001192	0.00571
x2 = 0.0009182, x1 = 5.4e-07	0.000316
x2 = 0.0009182, x1 = 9.1e-07	0.000383
x2 = 0.0009182, x1 = 1.63e-06	0.00045
x2 = 0.0009182, x1 = 2.35e-06	0.000543
x2 = 0.0009182, x1 = 2.9e-06	0.000651
x2 = 0.0009182, x1 = 3.8e-06	0.000745
x2 = 0.0009182, x1 = 4.53e-06	0.000847
x2 = 0.0009182, x1 = 5.61e-06	0.00102
x2 = 0.0009182, x1 = 6.88e-06	0.001307
x2 = 0.0009182, x1 = 7.97e-06	0.001432
x2 = 0.0009182, x1 = 9.06e-06	0.00156
x2 = 0.0009182, x1 = 1.014e-05	0.00169
x2 = 0.0009182, x1 = 1.123e-05	0.001816
x2 = 0.0009182, x1 = 1.34e-05	0.00202
x2 = 0.0009182, x1 = 1.558e-05	0.00226
x2 = 0.0009182, x1 = 1.775e-05	0.0024
x2 = 0.0009182, x1 = 1.974e-05	0.00254
x2 = 0.0009182, x1 = 2.192e-05	0.00266

Source: the CheMixHub ionic liquid set
